Reference: US20240246967A1, “AXL COMPOUNDS” (ARCUS BIOSCIENCES, INC., priority 2021, published 2024)

Assays:
human TYRO3 = target: T1, human TYRO3 (Homo sapiens, UniProt Q06418); assay: HTRF KinEASE-TK biochemical potency assay, TYRO3; conditions: 1 nM TYRO3, 700 μM ATP, 800 nM TK Substrate-biotin
T1 construct: purchased Invitrogen
T1 sequence (Q06418 41-890): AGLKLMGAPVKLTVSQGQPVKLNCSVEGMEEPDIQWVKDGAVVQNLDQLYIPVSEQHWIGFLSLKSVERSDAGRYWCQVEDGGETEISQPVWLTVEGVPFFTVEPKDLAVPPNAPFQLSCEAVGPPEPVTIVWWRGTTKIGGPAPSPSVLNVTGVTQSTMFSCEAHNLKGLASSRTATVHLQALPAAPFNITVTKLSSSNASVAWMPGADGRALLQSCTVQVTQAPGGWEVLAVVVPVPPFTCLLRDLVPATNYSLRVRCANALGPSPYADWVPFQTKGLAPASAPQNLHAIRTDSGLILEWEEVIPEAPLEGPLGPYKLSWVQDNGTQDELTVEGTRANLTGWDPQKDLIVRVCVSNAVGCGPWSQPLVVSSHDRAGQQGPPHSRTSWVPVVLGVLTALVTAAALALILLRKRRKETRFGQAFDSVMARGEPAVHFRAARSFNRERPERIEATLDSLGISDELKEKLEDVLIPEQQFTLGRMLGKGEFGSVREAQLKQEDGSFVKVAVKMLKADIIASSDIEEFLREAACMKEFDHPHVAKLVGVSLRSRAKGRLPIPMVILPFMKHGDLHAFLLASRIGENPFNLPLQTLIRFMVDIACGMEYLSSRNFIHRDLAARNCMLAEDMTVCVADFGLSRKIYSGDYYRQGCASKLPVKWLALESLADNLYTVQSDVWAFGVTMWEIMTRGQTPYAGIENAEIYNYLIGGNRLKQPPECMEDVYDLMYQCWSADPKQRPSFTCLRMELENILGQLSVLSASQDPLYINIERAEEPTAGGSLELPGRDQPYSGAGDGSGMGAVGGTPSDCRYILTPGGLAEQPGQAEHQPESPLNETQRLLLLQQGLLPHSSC
How it was run: (§1)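 Recombinant human kinase preincubated 1 h at RT with compound, then reacted 2 h at RT with final 5 nM AXL or 1 nM TYRO3/MER, 800 nM TK Substrate-biotin and 700 μM ATP in HEPES pH 7.4, 10 mM MgCl2, 1% DMSO. Phosphorylation read by HTRF 665/620 ratio, expressed as percent activity.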

Axl = target: T2, Axl (Homo sapiens, UniProt P30530); assay: HTRF KinEASE-TK biochemical potency assay, AXL; set-up: purchased Invitrogen; conditions: 5 nM AXL, 700 μM ATP, 800 nM TK Substrate-biotin
T2 sequence (P30530 26-894): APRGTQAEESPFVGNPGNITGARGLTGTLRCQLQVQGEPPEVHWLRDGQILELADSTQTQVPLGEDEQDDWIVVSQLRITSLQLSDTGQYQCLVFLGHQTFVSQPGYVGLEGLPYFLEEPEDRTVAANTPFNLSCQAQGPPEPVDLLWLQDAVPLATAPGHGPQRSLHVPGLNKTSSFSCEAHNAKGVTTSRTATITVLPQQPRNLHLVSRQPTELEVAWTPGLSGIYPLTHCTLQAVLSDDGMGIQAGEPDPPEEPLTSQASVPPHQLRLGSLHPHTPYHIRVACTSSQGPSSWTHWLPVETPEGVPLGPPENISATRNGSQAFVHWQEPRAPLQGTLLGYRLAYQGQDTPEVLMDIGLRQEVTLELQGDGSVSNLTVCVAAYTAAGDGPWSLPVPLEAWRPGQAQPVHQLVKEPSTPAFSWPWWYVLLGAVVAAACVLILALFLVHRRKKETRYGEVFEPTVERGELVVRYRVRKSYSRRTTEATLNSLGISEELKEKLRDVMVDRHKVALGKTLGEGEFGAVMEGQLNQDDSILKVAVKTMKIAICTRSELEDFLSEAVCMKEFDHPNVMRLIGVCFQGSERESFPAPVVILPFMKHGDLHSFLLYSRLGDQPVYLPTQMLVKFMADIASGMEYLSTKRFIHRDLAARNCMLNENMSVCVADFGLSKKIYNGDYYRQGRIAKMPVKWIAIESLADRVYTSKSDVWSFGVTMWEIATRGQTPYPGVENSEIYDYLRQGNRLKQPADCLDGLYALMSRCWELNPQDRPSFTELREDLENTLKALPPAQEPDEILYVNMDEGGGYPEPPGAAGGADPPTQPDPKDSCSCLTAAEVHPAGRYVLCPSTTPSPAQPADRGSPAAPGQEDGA
How it was run: as §1

Cc1cc(-c2n[nH]c3ncc(-c4ccc5c(c4)CCC(N4CCCC4)CC5)cc23)cc(F)c1C(N)=O (stereo not shown) [Example 79, 2-Fluoro-6-methyl-4-(5-(7-(pyrrolidin-1-yl)-6,7,8,9-tetrahydro-5H-benzo[7]annulen-2-yl)-1H-pyrazolo[3,4-b]pyridin-3-yl)benzamide] was tested, and the IC50 (human TYRO3) was under 100 nM and the IC50 (Axl) was under 100 nM.
With NC(=O)c1ccc(-c2n[nH]c3ncc(-c4ccc5c(c4)CCC(N4CCCC4)CC5)cc23)cc1C(F)(F)F (stereo not shown) [Example 80, 4-(5-(7-(Pyrrolidin-1-yl)-6,7,8,9-tetrahydro-5H-benzo[7]annulen-2-yl)-1H-pyrazolo[3,4-b]pyridin-3-yl)-2-(trifluoromethyl)benzamide] the IC50 (human TYRO3) was under 100 nM and the IC50 (Axl) was under 100 nM.
In the case of NC(=O)c1ccc(-c2n[nH]c3ncc(-c4ccc5c(c4)CCC(N4CCCC4)CC5)cc23)cc1F (stereo not shown) [Example 81, 2-Fluoro-4-(5-(7-(pyrrolidin-1-yl)-6,7,8,9-tetrahydro-5H-benzo[7]annulen-2-yl)-1H-pyrazolo[3,4-b]pyridin-3-yl)benzamide], the IC50 (human TYRO3) is reported as under 100 nM and the IC50 (Axl) is reported as under 100 nM.
For O=C(c1ccc(-c2n[nH]c3ncc(-c4ccc5c(c4)CC[C@@H](N4CCCC4)CC5)cc23)cc1Cl)N1CCNCC1 [Example 82, (S)-(2-Chloro-4-(5-(7-(pyrrolidin-1-yl)-6,7,8,9-tetrahydro-5H-benzo[7]annulen-2-yl)-1H-pyrazolo[3,4-b]pyridin-3-yl)phenyl)(piperazin-1-yl)methanone], the IC50 (human TYRO3) was under 100 nM and the IC50 (Axl) was under 100 nM.
Cc1cc(-c2n[nH]c3ncc(-c4ccc5c(c4)CC[C@@H](N4CCCC4)CC5)cc23)cc(F)c1C(N)=O [Example 83, (S)-2-Fluoro-6-methyl-4-(5-(7-(pyrrolidin-1-yl)-6,7,8,9-tetrahydro-5H-benzo[7]annulen-2-yl)-1H-pyrazolo[3,4-b]pyridin-3-yl)benzamide] gave an IC50 (human TYRO3) of under 100 nM and an IC50 (Axl) of under 100 nM.
NC(=O)c1ccc(-c2n[nH]c3ncc(-c4ccc5c(c4)CC[C@@H](N4CCCC4)CC5)cc23)cc1Cl [Example 84, (S)-2-Chloro-4-(5-(7-(pyrrolidin-1-yl)-6,7,8,9-tetrahydro-5H-benzo[7]annulen-2-yl)-1H-pyrazolo[3,4-b]pyridin-3-yl)benzamide] was tested, and the IC50 (human TYRO3) was under 100 nM and the IC50 (Axl) was under 100 nM.
O=C(c1ccc(-c2n[nH]c3ncc(-c4ccc5c(c4)CC[C@@H](N4CCCC4)CC5)cc23)cc1Cl)N1CCC(O)CC1 [Example 85, (S)-(2-Chloro-4-(5-(7-(pyrrolidin-1-yl)-6,7,8,9-tetrahydro-5H-benzo[7]annulen-2-yl)-1H-pyrazolo[3,4-b]pyridin-3-yl)phenyl)(4-hydroxypiperidin-1-yl)methanone] gave an IC50 (human TYRO3) of under 100 nM and an IC50 (Axl) of under 100 nM.
With COc1cc(-c2n[nH]c3ncc(-c4ccc5c(c4)CCC(C)(N4CCC[C@H]4C)CC5)cc23)ccc1S(N)(=O)=O (stereo partly drawn) [Example 87, 2-Methoxy-4-(5-(7-methyl-7-((R)-2-methylpyrrolidin-1-yl)-6,7,8,9-tetrahydro-5H-benzo[7]annulen-2-yl)-1H-pyrazolo[3,4-b]pyridin-3-yl)benzenesulfonamide] the IC50 (human TYRO3) was 100 to 1000 nM and the IC50 (Axl) was under 100 nM.
For C[C@@H]1CCCN1C1(C)CCc2ccc(-c3cnc4[nH]nc(-c5ccc(C(=O)NC6CCOCC6)cc5)c4c3)cc2CC1 (stereo partly drawn) [Example 88, 4-(5-(7-Methyl-7-((R)-2-methylpyrrolidin-1-yl)-6,7,8,9-tetrahydro-5H-benzo[7]annulen-2-yl)-1H-pyrazolo[3,4-b]pyridin-3-yl)-N-(tetrahydro-2H-pyran-4-yl)benzamide], the IC50 (human TYRO3) was 100 to 1000 nM and the IC50 (Axl) was under 100 nM.
COC1CCN(C(=O)c2ccc(-c3n[nH]c4ncc(-c5ccc6c(c5)CCC(C)(N5CCC[C@H]5C)CC6)cc34)cc2)CC1 (stereo partly drawn) [Example 89, (4-Methoxypiperidin-1-yl)(4-(5-(7-methyl-7-((R)-2-methylpyrrolidin-1-yl)-6,7,8,9-tetrahydro-5H-benzo[7]annulen-2-yl)-1H-pyrazolo[3,4-b]pyridin-3-yl)phenyl)methanone] showed an IC50 (human TYRO3) of 100 to 1000 nM and an IC50 (Axl) of under 100 nM.
Work on Cc1cc2c(cc1-c1cnc3[nH]nc(-c4ccc(C(C)(C)O)c(Cl)c4)c3c1)CCC(N1CCC[C@H]1C)CC2 (stereo partly drawn) [Example 90, 2-[2-Chloro-4-(5-{3-methyl-7-[(2R)-2-methylpyrrolidin-1-yl]-6,7,8,9-tetrahydro-5H-benzo[7]annulen-2-yl}-1H-pyrazolo[3,4-b]pyridin-3-yl)phenyl]propan-2-ol] yielded an IC50 (human TYRO3) of over 1000 nM and an IC50 (Axl) of under 100 nM.
NS(=O)(=O)c1ccc(-c2n[nH]c3ncc(-c4ccc5c(c4)CC[C@@H](N4CCCC4)CC5)cc23)cc1Cl [Example 91, (S)-2-Chloro-4-(5-(7-(pyrrolidin-1-yl)-6,7,8,9-tetrahydro-5H-benzo[7]annulen-2-yl)-1H-pyrazolo[3,4-b]pyridin-3-yl)benzenesulfonamide] showed an IC50 (human TYRO3) of under 100 nM and an IC50 (Axl) of under 100 nM.
NS(=O)(=O)c1ccc(-c2n[nH]c3ncc(-c4ccc5c(c4)CCN(C4CCCC4)CC5)cc23)cc1Cl [Example 92, 2-Chloro-4-(5-(3-cyclopentyl-2,3,4,5-tetrahydro-1H-benzo[d]azepin-7-yl)-1H-pyrazolo[3,4-b]pyridin-3-yl)benzenesulfonamide] was tested, and the IC50 (human TYRO3) was 100 to 1000 nM and the IC50 (Axl) was under 100 nM.
C[C@@H]1CCCN1C1(C)CCc2ccc(-c3cnc4[nH]nc(-c5ccc(S(N)(=O)=O)c(Cl)c5)c4c3)cc2CC1 (stereo partly drawn) [Example 93, 2-Chloro-4-(5-(7-methyl-7-((R)-2-methylpyrrolidin-1-yl)-6,7,8,9-tetrahydro-5H-benzo[7]annulen-2-yl)-1H-pyrazolo[3,4-b]pyridin-3-yl)benzenesulfonamide] was tested, and the IC50 (human TYRO3) was under 100 nM and the IC50 (Axl) was under 100 nM.
